Results as given in US20260226493A1, “HERBICIDE RESISTANT PLANTS” (SYNGENTA CROP PROTECTION AG, priority 2023, published 2026).

Assays:
Chroococcidiopsis BioA = experiment: BioA enzyme activity with DMSO or herbicide in vitro; format: biochemical, Chroococcidiopsis sp. CCMEE 29; conditions: spermidine in substrate mix
Description: A pet-24 plasmid containing a DNA sequence encoding each identified variant mutant of BIO3-BIO1 derived from Arabidopsis thaliana from example 5 above, as shown in Table 13 below and as shown in full in SEQ ID NOs: 15 to 155, codon-optimised for expression in E. coli, with an N-terminal 6×His-tag and thrombin cleavage site and under control of a T7 promoter, and was synthesised by Twist Bioscience, in a similar manner to SEQ ID NO:311. These plasmids were then expressed in E. coli BL21 (DE3) bioA with 50 μg/mL kanamycin and 25 μg/mL chloramphenicol selection. Overnight cultures grown at 37° C. were used to inoculate 8×500 mL AIM in shake flasks at a ratio of 1:100. Cultures were grown at 37° C., 200 rpm for 3.5 hours and then overnight at 20° C. Cells were harvested by centrifugation for 30 minutes at 10 000 g. Cells were stored at −80° C. until extraction. 30 g of cell pellet from was thawed in 120 mL of IMAC buffer A (20 mM HEPES pH7.5, 25 mM imidazole, 500 mM sodium chloride, 0.15 mM pyridoxal phosphate, 0.5 mM TCEP, 1× complete Protease Inhibitor Tablet (Roche)). The resuspension was passed through a cell disrupter at 18 000 PSI and centrifuged at 50 000 g for 25 minutes at 4° C. The His-tagged BIO3-BIO1 protein was purified from the extract supernatant on an AKTA avant chromatography system (Cytiva) using a HisTrap FF column and eluted in IMAC buffer B ((20 mM HEPES pH7.5, 500 mM imidazole, 500 mM sodium chloride, 0.15 mM pyridoxal phosphate, 0.5 mM TCEP) followed by SEC using a HiLoad 26/60 Superdex200 column in SEC buffer (25 mM HEPES pH7.5, 150 mM sodium chloride, 0.15 mM pyridoxal phosphate, 0.5 mM TCEP). Protein concentration was measured and calculated using the absorbance at 280 nm. Extracts were diluted 1 in 4 and 10 uL was analysed by SDS PAGE.
To measure BIO3-BIO1 mutant enzyme activity in the presence of herbicide, herbicides were incubated with 20 μL of enzyme mix (100 mM EPPS pH 8.6, 0.1 mM pyridoxal phosphate, 0.1 mg/mL BSA, 50 nM BIO3-BIO1 enzyme) for 10 minutes at 20° C. in a well of a 96-well half-area black plate, followed by the addition of 20 μL of substrate mix (final concentration of 100 mM EPPS pH 8.6, 0.1 mM pyridoxal phosphate, 0.1 mg/mL BSA, 100 μM spermidine, 20 μM KAPA, 100 mM NaCO3) and further incubation for 75 minutes at 20° C. The reaction was terminated by the addition of 50 μL of derivatisation mix (final concentration of 250 mM borate NaOH pH 9.4, 3.6 mM o-phthalaldehyde, 7 mM β-mercaptoethanol, 17% (v/v) ethanol, 3.6% (v/v) methanol). The fluorescent product produced by the reaction of DAPA with o-phthalaldehyde and 7 mM β-mercaptoethanol was measured at 470 nm after excitation at 410 nm. The percentage inhibition was calculated as the activity in the presence of one of three concentrations of each herbicide compound A to M (note that the compounds labelled as A to M are identified hereinabove in the relevant section of the description) as a percentage of the activity in DMSO (Table 12 and 13). The percentage activity versus WT was also calculated and is shown in Table 13 and 14 (NT indicates mutation not tested in table 13, note that these mutations are tested at different compound concentrations for compounds L, M and C, and the results are shown in table 14).
Protein of Escherichia coli BioA (SEQ ID NO:159), Pantoea ananatis BioA (SEQ ID NO:167), Streptomyces viridochromogenes BioA (SEQ ID NO:170), Cryptosporidium andersoni BioA (SEQ ID NO:160), Stenotrophomonas maltophilia BioA (SEQ ID NO:171), Chroococcidiopsis BioA (SEQ ID NO:184), Pedobacter hartonius BioA (SEQ ID NO:181), Chitinophaga filiformis BioA (SEQ ID NO:180), Tenacibaculum adriaticum BioA (SEQ ID NO:185) and Bacillus subtilis BioA (SEQ ID NO:166) was prepared using the method in Example 6. BioA enzyme activity in the presence of herbicide or DMSO in vitro for each of the proteins was assayed according to the enzyme assay method in Example 6, except in some reactions spermidine was replaced with 2 mM S-Adenosyl methionine.

Arabidopsis BioDAΔMTP = molecular target: T1, Arabidopsis BioDAΔMTP (Arabidopsis thaliana, UniProt B0F481); experiment: BioDA enzyme activity with DMSO or herbicide in vitro (wild-type reference enzyme); format: biochemical; conditions: for % Inhibition relative to DMSO treatment: Arabidopsis BioDAΔMTP (Table 26)
T1 construct: with the predicted N-terminal mitochondrial transit peptide removed; 6xHis-tag (N); thrombin cleavage site (N); made in house; host or cells: E. coli BL21 (DE3) bioA
T1 sequence (B0F481 with tags, fused parts or gaps): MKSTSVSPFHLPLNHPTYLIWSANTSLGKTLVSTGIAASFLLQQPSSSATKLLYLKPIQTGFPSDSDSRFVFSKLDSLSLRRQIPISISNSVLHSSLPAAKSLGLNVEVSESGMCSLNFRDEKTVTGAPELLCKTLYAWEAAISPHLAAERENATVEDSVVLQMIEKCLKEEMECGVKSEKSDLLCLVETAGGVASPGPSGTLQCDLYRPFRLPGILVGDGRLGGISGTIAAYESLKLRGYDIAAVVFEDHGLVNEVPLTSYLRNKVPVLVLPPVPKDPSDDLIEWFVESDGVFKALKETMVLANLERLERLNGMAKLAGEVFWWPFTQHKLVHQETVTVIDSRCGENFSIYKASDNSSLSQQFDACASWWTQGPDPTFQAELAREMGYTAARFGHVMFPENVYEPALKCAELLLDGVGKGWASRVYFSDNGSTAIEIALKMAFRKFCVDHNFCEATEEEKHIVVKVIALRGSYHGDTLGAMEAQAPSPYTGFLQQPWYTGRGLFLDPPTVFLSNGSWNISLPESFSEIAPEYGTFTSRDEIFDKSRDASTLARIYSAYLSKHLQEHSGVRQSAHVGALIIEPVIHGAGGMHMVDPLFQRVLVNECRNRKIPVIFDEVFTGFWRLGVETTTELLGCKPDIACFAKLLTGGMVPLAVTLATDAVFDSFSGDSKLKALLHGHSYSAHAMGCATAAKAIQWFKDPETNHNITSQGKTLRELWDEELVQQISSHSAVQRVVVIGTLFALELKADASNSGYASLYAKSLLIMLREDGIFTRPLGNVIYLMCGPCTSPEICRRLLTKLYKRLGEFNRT

[1] = 31 μM, Arabidopsis (SEQ ID NO 294), spermidine in substrate mix, read-out: % Inhibition relative to DMSO treatment
[2] = Arabidopsis (SEQ ID NO 294), spermidine in substrate mix, read-out: % Inhibition relative to DMSO treatment
[3] = 500 μM, Arabidopsis (SEQ ID NO 294), spermidine in substrate mix, read-out: % Inhibition relative to DMSO treatment

`CCOC(=O)c1nn(-c2ccc3c(c2)OC(F)(F)C(F)(F)O3)c2cccc(C(C)=O)c2c1=O` [Compound A, ethyl 5-acetyl-4-oxo-1-(2,2,3,3-tetrafluoro-1,4-benzodioxin-6-yl)cinnoline-3-carboxylate] was tested, and the “% Inhibition relative to DMSO treatment” value (Chroococcidiopsis BioA; 25 μM) was 0% and the inhibition at 25 µM (Arabidopsis BioDAΔMTP; 25 μM, Arabidopsis (SEQ ID NO 294), spermidine in substrate mix, read-out: % Inhibition relative to DMSO treatment) was 96%.

`CC(O)C(N)CCCCC(=O)O.Cl` (centres unmarked) [Compound B, [5-carboxy-1-(1-hydroxyethyl)pentyl]ammonium chloride] was tested, and the “% Inhibition relative to DMSO treatment” value (Chroococcidiopsis BioA; 200 μM) was 99%, the inhibition at 31 µM (Arabidopsis BioDAΔMTP; [1]) was 79% and the inhibition at 200 µM (Arabidopsis BioDAΔMTP; [2]) was 96%. For the same molecule, the inhibition at 500 µM (Arabidopsis BioDAΔMTP; [3]) was 96%.

With `CCn1c(C)c(-c2ccc(F)cc2F)c(=O)c(C(=O)O)c1-c1ccc(Cl)c(Cl)c1` [Compound C, 2-(3,4-dichlorophenyl)-5-(2,4-difluorophenyl)-1-ethyl-6-methyl-4-oxo-pyridine-3-carboxylic acid] the “% Inhibition relative to DMSO treatment” value (Chroococcidiopsis BioA; 0.5 μM) was 2% and the inhibition at 0.5 µM (Arabidopsis BioDAΔMTP; [2]) was 53%.

In the case of `CCn1c(C)c(-c2cc(OC(F)(F)F)ccc2Cl)c(=O)c(C(=O)O)c1-c1ccc(Cl)c(Cl)c1` [Compound D, 5-[2-chloro-5-(trifluoromethoxy)phenyl]-2-(3,4-dichlorophenyl)-1-ethyl-6-methyl-4-oxo-pyridine-3-carboxylic acid], the “% Inhibition relative to DMSO treatment” value (Chroococcidiopsis BioA; 0.5 μM) is reported as 0% and the inhibition at 0.5 µM (Arabidopsis BioDAΔMTP; [2]) is reported as 95%.

With `C[C@@H](N)COc1cccc(C(=O)O)n1.Cl.Cl` [Compound E, [(1R)-2-(6-carboxypyridin-1-ium-2-yl)oxy-1-methyl-ethyl]ammonium dichloride] the “% Inhibition relative to DMSO treatment” value (Chroococcidiopsis BioA; 200 μM) was 26% and the inhibition at 200 µM (Arabidopsis BioDAΔMTP; [2]) was 96%.

With `CCn1c(Cn2ccc(C(F)(F)F)n2)cc(=O)c(C(=O)O)c1-c1ccc(Cl)c(Cl)c1` [Compound L, 2-(3,4-dichlorophenyl)-1-ethyl-4-oxo-6-[[3-(trifluoromethyl)pyrazol-1-yl]methyl]pyridine-3-carboxylic acid] the “% Inhibition relative to DMSO treatment” value (Chroococcidiopsis BioA; 0.5 μM) was 15%, the inhibition at 0.5 µM (Arabidopsis BioDAΔMTP; [2]) was 83% and the inhibition at 31 µM (Arabidopsis BioDAΔMTP; [1]) was 99%. The “% Inhibition relative to DMSO treatment” value (Arabidopsis BioDAΔMTP; 31 μM) was 99%, the inhibition at 500 µM (Arabidopsis BioDAΔMTP; [3]) was 98% and the “% Inhibition relative to DMSO treatment” value (Arabidopsis BioDAΔMTP; 500 μM) was 98%.

`CCn1c(-c2ccc(Cl)c(Cl)c2)c(C(=O)O)c(=O)c2cc(F)ccc21` [Compound M, 2-(3,4-dichlorophenyl)-1-ethyl-6-fluoro-4-oxo-quinoline-3-carboxylic acid] was tested, and the “% Inhibition relative to DMSO treatment” value (Chroococcidiopsis BioA; 0.5 μM) was 10% and the inhibition at 0.5 µM (Arabidopsis BioDAΔMTP; [2]) was 45%.
